Measurements from ChEMBL document CHEMBL3507680, “University of Dundee, Gates Library screen for HepG2 cell viability”.

Experiment: Human HepG2 cell viability assay in 384 well format
Type: toxicity, cell-based
Parameters: dose 125 nL, time 70.5 hour; cytotoxicity at 70.5 h: concentration not given beside the values
Settings: HepG2 cells, read-out: Inhibition

SMILES	cytotoxicity at 70.5 h [%]
CCC(=O)N1CCC(Cc2ccccc2-c2ccncc2)(C(=O)NC)C1 (centres undefined)	-7.46
CN1CCCCC1c1ncc2c(n1)CCN(Cc1ccc(F)cc1)C2 (centres undefined)	-5.99
CCCC(=O)N1CCC(Cc2ccccc2-c2ccccc2)(C(N)=O)C1 (centres undefined)	-6.16
COc1cc(C)c(CN2CCc3nc4ccsc4c(=O)n3CC2)cc1C	0.311
COc1ccc(CN2CCc3nc4ccsc4c(=O)n3CC2)c(C)c1C	39.8
CC[C@@H]1C[C@H](C(F)(F)F)n2nc(C3CCN(S(=O)(=O)CC)CC3)cc2N1	18.8
CCC(=O)N1CCC2(CC1)CNC(=O)c1cc(C)ccc1O2	-1.62
Cc1ccc2c(c1)C(=O)NCC1(CCN(Cc3ccccc3)CC1)O2	-6.17
O=C(Cc1ccccn1)N1CCC(O)(Cn2ccc3ccncc32)CC1	-6.87
Cc1cc2c(=O)n3c(nc2s1)CCN(C(=O)c1cn(C)nc1C)CC3	-1.48
Cc1cc(C(=O)N2CCc3nc4sc(C)cc4c(=O)n3CC2)on1	-2.99
Cc1nc(C)c(C(=O)N2CCc3nc4sc(C)cc4c(=O)n3CC2)o1	-4.92
Cc1cc2c(=O)n3c(nc2s1)CCN(C(=O)c1ccn(C)n1)CC3	-5.05
Cc1cc2c(=O)n3c(nc2s1)CCN(C(=O)c1cnn(C)c1)CC3	-7.07
Cc1cc2c(=O)n3c(nc2s1)CCN(C(=O)c1sc(C)nc1C)CC3	-2.56
C[C@@H]1C[C@H](C(F)(F)F)n2nc(C3CCN(C(=O)C(C)(C)C)CC3)cc2N1	-6.86
COCC(=O)N1CCC(c2cc3n(n2)[C@@H](C(F)(F)F)C[C@@H](C)N3)CC1	-8.82
O=S1(=O)NC(C2CCN(Cc3ccccn3)CC2)Nc2ccccc21 (centres undefined)	-9.26
Cc1ccc(S(=O)(=O)N2C[C@H]3C[C@H](NC(=O)c4ccccn4)[C@H]3C2)cc1	56.3
COc1cccc(CNC(=O)c2ccccc2-n2cc(CN)cn2)c1	-2.7
Cn1cnc(CNC(=O)c2ccccc2-n2cc(CN)cn2)c1	-5.11
O=C(O)COc1ccccc1CN1CCCC1c1ccncn1 (centres undefined)	-6.02
Cc1cc(N)cc(C2CN(Cc3cc[nH]n3)CCO2)n1 (centres undefined)	-6.43

SMILES	cytotoxicity at 70.5 h [%]
O=C1CO[C@H]2CN(Cc3ccccc3Br)C[C@@H]2N1	20.8
Cc1ccccc1CC(=O)N(C)CC1(O)CCCN(c2ccccn2)C1 (centres undefined)	-5.53
CN(CC1(O)CCCN(c2ccccn2)C1)C(=O)CCc1cccs1 (centres undefined)	-7.41
Cn1ccnc1CN1CC[C@H](O)[C@@H](n2ccc(=O)[nH]c2=O)CC1	-3.14
CN(CC1(O)CCN(c2ccccn2)C1)C(=O)Cc1ccsc1 (centres undefined)	-6.86
CC(C)(C)CC(=O)N1CCC(c2nn(CCN)c3nccnc23)C1 (centres undefined)	-4.08
CCn1ncc(CN2C[C@@H]3CCCN3C[C@@H]2CCSC)c1C	-6.31
CCn1ncc(CN2C[C@@H]3CCCN3C[C@H]2CCSC)c1C	1.32
CCc1cc(C(F)(F)F)c2c(C3CCCN(C(=O)COC)C3)noc2n1 (centres undefined)	-4.44
CN(C)C(=O)CN1CCCC(c2cncc(-c3cccc(Cl)c3)n2)C1 (centres undefined)	-1.23
CN1CCC(CN(C)C(=O)c2cc(C3CCCN3C)ccn2)CC1 (centres undefined)	-6.76
Cc1nc(Nc2ncccn2)cc(C2CN(C(=O)c3cccnc3)C2)n1	-8.6
Cc1cc(C(F)(F)F)c2c(C3CCCN(C(=O)C4CC4)C3)noc2n1 (centres undefined)	-8.63
Cc1nc(Nc2nnc(C)s2)cc(C2CCCN2S(C)(=O)=O)n1 (centres undefined)	-1.79
Cn1ccc2ccnc(CC3CN(C(=O)c4cscn4)C3)c21	-2.15
CNC(=O)C1CN(Cc2c[nH]cn2)CCN(C2CCOCC2)C1 (centres undefined)	14.9
CN1CCCC(Cc2cncc(C(=O)NC3CC3)c2)C1 (centres undefined)	-6.9
CCSCCOC(=O)CCCc1ccc2c(c1)CC(=O)N2	-12.3
O=C(C1CCCC1)N1CCC(C(O)c2ccc(F)cc2)CC1 (centres undefined)	-6.02
CCOC(=O)CCCc1ccc2c(c1)CC(=O)N2	-18.2
COC(=O)C1(NCc2nc(C)c(C)o2)CCC(C)CC1 (centres undefined)	-8.62
Cc1cc(C(=O)NCC2SCCc3ccccc32)no1 (centres undefined)	-14.4
O=C(NCC1SCCc2ccccc21)c1cscn1 (centres undefined)	-13.5

SMILES	cytotoxicity at 70.5 h [%]
Cn1cc(C(=O)Nc2cccc(-c3ccc4c(c3)CCO4)n2)ccc1=O	12
CCC(O)CN(Cc1cccc(C(=O)N(C)C)c1)c1ccccc1 (centres undefined)	-1.87
CC(O)CN(Cc1cccc(C(=O)N(C)C)c1)c1ccccc1 (centres undefined)	-3.2
Cc1cc(CN(C)Cc2cnc3c(c2)c(C)nn3C)no1	8.45
Cn1cc(C2(C)CN(C(=O)COc3ccccc3F)CCO2)cn1 (centres undefined)	-4.09
COc1ccccc1CC1CCCN(C(=O)c2n[nH]c3c2CCC3)C1 (centres undefined)	-3.07
COc1ccc(Cl)cc1CCNC(=O)N(C)CC1CCOC1 (centres undefined)	-1.13
CCN(CC)C(=O)C1(NCc2nc(C)c(C)o2)CCCCC1	-4.63
O=S(=O)(NCCCn1cccn1)c1ccc2c(c1)CCC2	-5.82
Cc1cccc(C(C)C)c1NC(=O)NCCN(C(C)C)C(C)C	-4.96
CC(C)CNC(=O)c1sccc1-n1cnnn1	-7.28
O=S(=O)(NCCCn1cncn1)c1ccc2c(c1)OCCO2	-3.62
OC(CNCc1nnc2ccccn12)c1ccc2c(c1)OCO2 (centres undefined)	-8
OC(CNCCc1nnc2ccccn12)c1ccc(F)c(F)c1 (centres undefined)	-6.79
CC(CN1CCOC1=O)NC(=O)c1ccccc1Oc1ccccc1 (centres undefined)	27.1
CCNC(=O)c1ccc(NC(=O)N(C)Cc2cc(C)on2)cc1	-4.32
CC(OCC1CC1)C(=O)NCCC(=O)Nc1ccccn1 (centres undefined)	-7.55
CC(CN1CCOCC1)NC(=O)N1CCN(S(C)(=O)=O)CC1 (centres undefined)	27.9
O=S(=O)(c1cc(F)ccc1N1CC(n2cccn2)C1)C(F)(F)F	-0.145
COc1ccc(OCCNC(=O)CN(C)Cc2nnc(C)n2C)cc1	29.6
O=C(Nc1cccc(N2CCCC2)c1)N[C@H](CCO)c1ccccc1	2.92
CC1CCC(O)(CSc2nnnn2C)CC1 (centres undefined)	-3.28
Cc1ccc(CNC(=O)c2ccc(=O)n(C)n2)c(OCC2CC2)c1	-4.46

SMILES	cytotoxicity at 70.5 h [%]
CCc1nnc(CS(=O)(=O)c2ccc(C)cc2)n1C	-0.707
CC(CN1CCOC1=O)NC(=O)c1cccc2cc[nH]c12 (centres undefined)	-3.45
Clc1snnc1CN(Cc1cccs1)C1CC1	-5.36
CN(Cc1cccs1)Cc1nnsc1Cl	-4.68
CCC1(CC)CC(=O)N(CC(O)c2cc(F)ccc2F)C1=O (centres undefined)	-4.77
Clc1ccc2c(c1)C=C(CNC1CCc3ncnn3C1)CO2 (centres undefined)	-7.55
CCc1noc(C(C)N2CCc3c(ncn3C3CC3)C2)n1 (centres undefined)	28.1
CC(c1nc(C2CC2)no1)N1CCc2c(ncn2C)C1 (centres undefined)	0.478
CC(OCC1CC1)C(=O)Nc1cccc(C(=O)Nc2ccncc2)c1 (centres undefined)	-10.9
COc1ccc2c(c1)OCC(CNC1CCc3nc(C)nn3C1)=C2 (centres undefined)	-8.64
COc1cc(NC(=O)N(C)C(C2CC2)C2CC2)ncn1	-3.68
CN(C1CCCCC1)S(=O)(=O)N1CCN(Cc2ccco2)CC1	-7.86
CN1CCC(N(Cc2ccccc2)C(=O)c2ccn3ccnc3c2)CC1	-2.58
CN(C)c1ccc(NC(=O)c2cccc(N(C)C)c2)nc1	15.4
NC1(c2nc(-c3ccccc3)cc(=O)[nH]2)CCCCC1	-10.8
O=C(CNC(=O)C1CC1)Nc1c(F)cccc1Oc1ccccc1	-3.31
O=C(CNC(=O)Nc1c(F)cccc1Oc1ccccc1)NC1CC1	-9.17
COCCN(C(=O)c1ccoc1C)c1ccc(C#N)cc1	-4.2
O=C(NCCc1nncn1C1CC1)C1SCCc2ccccc21 (centres undefined)	-7.17
Cc1nc(C(C)(C)NCc2nnc(C(C)C)o2)sc1C	1.69
CC(=O)N1CC(C)CN(Cc2ccon2)c2ccccc21 (centres undefined)	-4.58
CC(O)CCN(C)S(=O)(=O)Cc1ccc(Cl)c(Cl)c1 (centres undefined)	-3.92
CC(O)CCN(C)S(=O)(=O)Cc1ccc(Br)cc1 (centres undefined)	23.3

SMILES	cytotoxicity at 70.5 h [%]
COc1cccc(/C=C/CCN2CCC(C(=O)N3CCCC3)CC2)c1	3.93
CC(C)N(C)S(=O)(=O)N1CCN(Cc2ccco2)CC1	-5.12
Cc1ccccc1CN1CCCN(S(=O)(=O)N(C)C2CCCCC2)CC1	-7.92
CC(C)c1ccc(OCCC(=O)N(C)CC(=O)N(C)C)cc1	16
COc1ccccc1CC(NC(=O)N1CCC[C@@H]1CO)C(C)C (some centres undefined)	-6.32
CN(C1CCCCC1)S(=O)(=O)N1CCN(Cc2ccon2)CC1	-9.52
CCN(CC)CCn1cc(NC(=O)c2ccccc2OC)cn1	-12.2
CC1COCCN1C(=O)c1ccc(=O)n(Cc2ccccc2)n1 (centres undefined)	-4.29
O=C(NCCOc1ccccc1)c1ccc2c(c1)C(=O)NC2=O	3.38
COC(=O)c1ccc(N2CCN(C(=O)C3CC3)C(C)C2)cc1 (centres undefined)	-5.06
CCOCCCOC(=O)c1ccc2c(c1)[nH]c(=O)n2C	18.6
O=C(NCc1nncn1C1CC1)C1(c2ccccc2)CCOCC1	-6.33
O=C(NCc1nncn1C1CC1)C1(c2ccc(F)cc2)CCCC1	14.3
CC(c1ncc(C(C)(C)C)o1)N1CCN(c2ccncc2)CC1 (centres undefined)	-2.28
CCCn1nnnc1CSc1nccn1Cc1ccccn1	-13.2
CC(c1ncc(C(C)(C)C)o1)N1CCN(Cc2ccncc2)CC1 (centres undefined)	-12.1
COc1ccc(NC(=O)NCC(C)N2CCc3ccccc32)cc1 (centres undefined)	-11.4
CC(CNC(=O)c1cccc(C#N)c1)N1CCc2ccccc21 (centres undefined)	-11.4
Cc1ccc(C(=O)NC2CCCN(c3ncccn3)C2)cn1 (centres undefined)	19.3
COc1ccc(OC)c(CN2CCc3nc4ccsc4c(=O)n3CC2)c1	38.7
Cc1cc(C[C@@H]2COC[C@H]2NCc2ccc(C(C)C)cc2)on1	-8.05
COc1cc(CN[C@@H]2COC[C@H]2Cc2cc(C)no2)cc(OC)c1	-6.2
